Data on 6 compounds can be found in article PMC10179503, “Using Machine Learning and Molecular Docking to Leverage Urease Inhibition Data for Virtual Screening” (International Journal of Molecular Sciences, 2023).

Structures are written as SMILES.

T1 sequence (P07374 whole entry): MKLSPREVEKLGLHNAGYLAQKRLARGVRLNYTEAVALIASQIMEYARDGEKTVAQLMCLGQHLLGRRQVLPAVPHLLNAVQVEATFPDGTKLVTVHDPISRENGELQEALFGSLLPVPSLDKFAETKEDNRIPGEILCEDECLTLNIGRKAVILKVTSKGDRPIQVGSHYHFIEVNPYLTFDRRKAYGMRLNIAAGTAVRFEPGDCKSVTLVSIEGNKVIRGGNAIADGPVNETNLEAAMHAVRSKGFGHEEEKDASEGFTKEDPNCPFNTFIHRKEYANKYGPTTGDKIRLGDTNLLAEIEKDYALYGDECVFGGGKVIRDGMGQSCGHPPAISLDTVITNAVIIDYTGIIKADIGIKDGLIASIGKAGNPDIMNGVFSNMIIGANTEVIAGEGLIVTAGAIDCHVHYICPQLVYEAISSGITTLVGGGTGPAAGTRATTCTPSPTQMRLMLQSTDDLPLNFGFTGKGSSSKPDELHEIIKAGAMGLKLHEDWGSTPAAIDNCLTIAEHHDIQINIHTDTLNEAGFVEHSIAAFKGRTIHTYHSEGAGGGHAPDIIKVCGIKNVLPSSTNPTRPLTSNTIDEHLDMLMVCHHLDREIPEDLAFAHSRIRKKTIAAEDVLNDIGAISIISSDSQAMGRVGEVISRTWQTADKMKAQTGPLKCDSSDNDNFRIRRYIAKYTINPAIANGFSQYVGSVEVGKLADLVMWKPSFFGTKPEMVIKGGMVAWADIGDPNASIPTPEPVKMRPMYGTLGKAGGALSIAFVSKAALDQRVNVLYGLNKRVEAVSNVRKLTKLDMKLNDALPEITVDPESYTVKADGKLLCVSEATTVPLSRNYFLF

One assay has as its target T1, jack bean urease (Canavalia ensiformis, UniProt P07374).
T1 construct: nickel metalloenzyme; full length 840 residues, native oligomer a hexamer (known biology)
The assay is described as follows: indophenol (Weatherburn) ammonia release, […] nm. It is filed as biochemical. Particulars: read-out: % at 1 mM or IC50 ± SEM.
Regarding `NC(N)=S` [Thiourea, reference compound], the IC50 came to 144 ± 5.08 µM. Still for that read-out and setting: the result for `O=S(=O)(NOCc1ccccc1)c1ccccc1` [compound 2, 2] reads 100 ± 10.2 µM; that for `[O-][S+](NOCc1ccccc1)c1ccccc1` (stereo not drawn) [compound 3, 3], 6.15 ± 0.99 µM; that for `NOC(=O)c1ccccc1` [compound 5, 5], 155 ± 2.02 µM.

In another assay the target is T1, jack bean urease. As to the kind of experiment: indophenol (Weatherburn) ammonia release, […] nm. Type of assay: biochemical. To be noted: urea (20 mM stock, 45 μL), PBS, 30 °C, 10 min.
As for `Cc1ccc(S(=O)(=O)NOCc2ccccc2)cc1` [compound 1, 1], the “% at 1 mM or IC50 ± SEM (μM)” value came to 43.85%. For `O=C(ON[S+]([O-])c1ccccc1)c1ccccc1` (stereo not drawn) [compound 4, 4], the “% at 1 mM or IC50 ± SEM (μM)” value turned out to be 0%.
